{
  "source": "paper PMC2709273",
  "about": "(The Journal of pharmacology and experimental therapeutics, 2008)",
  "key": {"[1]": {"target": "homomeric α7 nicotinic acetylcholine receptor expressed in X. laevis oocytes (UniProt Q05941)", "sequence (Q05941 23-502)": "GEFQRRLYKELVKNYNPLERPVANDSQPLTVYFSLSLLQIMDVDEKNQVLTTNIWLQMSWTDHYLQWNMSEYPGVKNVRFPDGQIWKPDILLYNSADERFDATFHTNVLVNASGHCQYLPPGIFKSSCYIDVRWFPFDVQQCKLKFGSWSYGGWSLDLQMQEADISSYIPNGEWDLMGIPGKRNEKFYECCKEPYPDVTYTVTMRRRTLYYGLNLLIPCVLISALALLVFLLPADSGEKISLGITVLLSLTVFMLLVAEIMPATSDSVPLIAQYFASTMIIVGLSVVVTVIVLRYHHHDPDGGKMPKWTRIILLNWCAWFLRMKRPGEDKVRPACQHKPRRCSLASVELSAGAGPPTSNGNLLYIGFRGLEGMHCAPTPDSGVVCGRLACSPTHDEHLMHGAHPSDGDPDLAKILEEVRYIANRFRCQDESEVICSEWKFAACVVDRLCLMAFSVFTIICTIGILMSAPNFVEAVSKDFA"}, "[2]": {"target": "T1, α7 nAChRs (Rattus norvegicus, UniProt Q05941)", "T1 sequence (Q05941 23-502)": "as above", "type": "cell-based"}, "[3]": {"target": "T1, α7 nAChRs", "conditions": "native and expressed receptors, cited from earlier work"}, "[4]": {"target": "α4β2 nAChRs (Rattus norvegicus, UniProt P09483+P12390)", "sequence (P09483 31-630)": "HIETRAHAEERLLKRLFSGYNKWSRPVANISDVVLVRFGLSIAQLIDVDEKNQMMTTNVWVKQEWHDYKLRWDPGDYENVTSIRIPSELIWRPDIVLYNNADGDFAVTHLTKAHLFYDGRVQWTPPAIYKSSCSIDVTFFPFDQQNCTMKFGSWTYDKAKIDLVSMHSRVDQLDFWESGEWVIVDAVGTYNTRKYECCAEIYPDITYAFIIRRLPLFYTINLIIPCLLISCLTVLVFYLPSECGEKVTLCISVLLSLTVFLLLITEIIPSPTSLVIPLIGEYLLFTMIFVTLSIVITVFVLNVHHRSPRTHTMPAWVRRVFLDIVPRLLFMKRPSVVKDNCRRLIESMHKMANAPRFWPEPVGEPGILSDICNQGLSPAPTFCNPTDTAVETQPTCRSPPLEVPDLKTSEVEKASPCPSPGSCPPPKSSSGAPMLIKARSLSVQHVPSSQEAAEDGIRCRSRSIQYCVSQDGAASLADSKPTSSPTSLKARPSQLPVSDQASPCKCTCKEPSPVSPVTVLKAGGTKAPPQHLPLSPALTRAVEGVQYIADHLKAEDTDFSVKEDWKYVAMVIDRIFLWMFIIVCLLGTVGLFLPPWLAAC", "sequence (P12390 25-500)": "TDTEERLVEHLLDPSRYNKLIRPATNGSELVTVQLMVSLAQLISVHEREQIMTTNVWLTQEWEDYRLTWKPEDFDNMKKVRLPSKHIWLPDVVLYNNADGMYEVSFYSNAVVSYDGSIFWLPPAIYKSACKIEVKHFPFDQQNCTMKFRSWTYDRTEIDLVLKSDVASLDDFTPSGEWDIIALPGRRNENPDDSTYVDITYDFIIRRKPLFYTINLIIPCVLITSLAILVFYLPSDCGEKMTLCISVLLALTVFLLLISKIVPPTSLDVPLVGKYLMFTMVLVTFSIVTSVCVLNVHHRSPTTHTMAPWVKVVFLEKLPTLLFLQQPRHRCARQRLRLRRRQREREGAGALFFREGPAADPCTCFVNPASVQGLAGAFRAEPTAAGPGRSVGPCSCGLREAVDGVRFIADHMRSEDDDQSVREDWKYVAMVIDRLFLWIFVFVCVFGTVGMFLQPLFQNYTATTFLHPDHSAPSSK", "type": "cell-based"}, "[5]": {"target": "native α7-containing nAChRs (rat CA1 stratum radiatum interneurons) (Rattus norvegicus, UniProt Q05941)", "sequence (Q05941 23-502)": "as the sequence (Q05941 23-502) above", "type": "cell-based"}, "[6]": {"target": "α2β2 nAChRs (Rattus norvegicus, UniProt P12389+P12390)", "sequence (P12389 28-511)": "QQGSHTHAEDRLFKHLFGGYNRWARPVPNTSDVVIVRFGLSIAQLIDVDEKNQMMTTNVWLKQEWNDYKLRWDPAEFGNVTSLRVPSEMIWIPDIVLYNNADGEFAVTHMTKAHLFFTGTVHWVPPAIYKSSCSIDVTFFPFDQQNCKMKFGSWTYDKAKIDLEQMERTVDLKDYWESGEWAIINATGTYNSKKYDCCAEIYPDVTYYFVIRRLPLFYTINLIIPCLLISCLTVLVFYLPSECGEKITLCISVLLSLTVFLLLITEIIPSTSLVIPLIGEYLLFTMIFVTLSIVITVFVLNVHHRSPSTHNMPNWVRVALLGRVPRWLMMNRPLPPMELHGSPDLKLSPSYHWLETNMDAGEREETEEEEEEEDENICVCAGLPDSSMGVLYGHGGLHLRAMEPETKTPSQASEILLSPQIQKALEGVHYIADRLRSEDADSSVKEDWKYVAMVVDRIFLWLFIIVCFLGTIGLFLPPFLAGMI", "sequence (P12390 25-500)": "as the sequence (P12390 25-500) above", "type": "cell-based"}, "[7]": {"conditions": "heteromeric nAChRs, X. laevis oocytes"}},
  "note": "“Also recorded” adds a separate entry of the source. Like-named read-outs stand apart in the source and are kept apart here. Where a SMILES comes first, the peptide text is derived from it.",
  "data": [
    {"compound": "MARCKS_(159–165) peptide", "values": [
      {"measurement": "percentage block of ACh-evoked α7 nAChR current in oocytes, peptide 1 µM", "setting": "[1]", "result": 5, "unit": "%"}
    ]},
    {"compound": "KKKKKRFDFKKDFKLDGFDFKKNK [MARCKS S/D]", "values": [
      {"measurement": "inhibition of ACh-evoked α7 nAChR responses (in words)", "setting": "[2]; X. laevis oocytes", "result": "unable to inhibit ACh-mediated α7 nAChR responses; also recorded: lack of inhibition of nAChR responses"}
    ]},
    {"compound": "β-Amyloid1–42: brain-derived peptide β-amyloid1–42", "values": [
      {"measurement": "effect on α7 nAChRs", "setting": "[3]; ref Dineley et al., 2002, Dougherty et al., 2003", "result": "agonism"},
      {"measurement": "effect on α7 nAChRs", "setting": "[3]; ref Liu et al., 2001, Grassi et al., 2003", "result": "almost complete antagonism"},
      {"measurement": "effect on α7 nAChRs", "setting": "[3]; ref Pettit et al., 2001, Lamb et al., 2005", "result": "minimal to no antagonism"}
    ]},
    {"compound": "MARCKS_(154–165) peptide", "values": [
      {"measurement": "percentage block of ACh-evoked α7 nAChR current in oocytes, peptide 1 µM", "setting": "[1]", "result": 12, "unit": "%"}
    ]},
    {"compound": "MARCKS159–165: truncated form of the MARCKS ED peptide, purchased from AnaSpec (SFKKSFK; UniProt P29966 159-165, looked up, fragment)", "values": [
      {"measurement": "inhibition of ACh-evoked α7 nAChR responses (in words)", "setting": "[2]; X. laevis oocytes", "result": "unable to significantly inhibit α7 nAChRs"}
    ]},
    {"compound": "MARCKS154–165: truncated form of the MARCKS ED peptide, purchased from AnaSpec (KKKRFSFKKSFK; UniProt P29966 154-165, looked up, fragment)", "values": [
      {"measurement": "inhibition of ACh-evoked α7 nAChR responses (in words)", "setting": "[2]; X. laevis oocytes", "result": "unable to significantly inhibit α7 nAChRs"}
    ]},
    {"compound": "CC(=O)N[C@@H](CCCCN)C(=O)N[C@@H](CCCCN)C(=O)N[C@@H](CCCCN)C(=O)N[C@@H](CCCCN)C(=O)N[C@@H](CCCCN)C(=O)N[C@@H](CCCNC(=N)N)C(=O)N[C@@H](Cc1ccccc1)C(=O)N[C@@H](CO)C(=O)N[C@@H](Cc1ccccc1)C(=O)N[C@@H](CCCCN)C(=O)N[C@@H](CCCCN)C(=O)N[C@@H](CO)C(=O)N[C@@H](Cc1ccccc1)C(=O)N[C@@H](CCCCN)C(=O)N[C@@H](CC(C)C)C(=O)N[C@@H](CO)C(=O)NCC(=O)N[C@@H](Cc1ccccc1)C(=O)N[C@@H](CO)C(=O)N[C@@H](Cc1ccccc1)C(=O)N[C@@H](CCCCN)C(=O)N[C@@H](CCCCN)C(=O)N[C@@H](CC(N)=O)C(=O)N[C@@H](CCCCN)C(=O)N[C@@H](CCCCN)C(N)=O", "note": "[MARCKS ED peptide] (Ac-KKKKKRFSFKKSFKLSGFSFKKNKK-NH2)", "values": [
      {"measurement": "inhibition not because of open channel block", "setting": "[2]; 1 µM peptide, +30 vs -60 mV", "result": 86, "unit": "%"},
      {"measurement": "voltage-dependent part of the inhibition", "setting": "[2]; 1 µM peptide, +30 vs -60 mV", "result": 14, "unit": "%"},
      {"measurement": "onset of inhibition", "setting": "[2]; 1 µM, X. laevis oocytes", "result": "rapid"},
      {"measurement": "voltage dependence of inhibition", "setting": "[2]; +30 and -60 mV", "result": "activity- and voltage-independent; also recorded: voltage- and activity-independent"},
      {"measurement": "inhibition of ACh-evoked α7 nAChR responses (in words)", "setting": "[2]; X. laevis oocytes", "result": "completely inhibited"},
      {"measurement": "washout / recovery from inhibition", "setting": "[2]; X. laevis oocytes", "result": "slow and slow recovery during washout and slow to recover with washout"},
      {"measurement": "activity (use) dependence of inhibition", "setting": "[2]; peptide bath applied 10 min without ACh stimulation, then ACh", "result": "activity- and voltage-independent; also recorded: there was not a use-dependent component of the peptide block; also recorded: voltage- and activity-independent"},
      {"measurement": "inhibition at 1 µM", "setting": "[2]; read-out: activity-independent inhibition of α7 nAChRs", "result": "98 ± 2", "unit": "%"},
      {"measurement": "inhibition at 1 µM", "setting": "[2]; read-out: inhibition of ACh-induced α7 nAChR peak current responses", "result": "99 ± 0.2", "unit": "%"},
      {"measurement": "inhibition at 0.1 µM", "setting": "[2]; read-out: inhibition of α7 ACh responses at 100 nM", "result": "90 ± 2", "unit": "%"},
      {"measurement": "inhibition at 1 µM", "setting": "[2]; read-out: inhibition still present after washout", "result": "82 ± 3", "unit": "%"},
      {"measurement": "potency at α4β2 compared with α7 nAChRs", "setting": "[4]; IC50 comparison by F test", "result": "decreased potency; also recorded: less potent inhibition"},
      {"measurement": "dissociation from α4β2 nAChRs relative to α7", "setting": "[4]; [7]", "result": "appears to dissociate more rapidly from heteromeric nAChRs"},
      {"measurement": "block of native α7 nAChRs in hippocampal interneurons (in words)", "setting": "[5]; acute rat hippocampal slices", "result": "able to block native α7 nAChRs in a dose-dependent manner"},
      {"measurement": "effect on baseline current in hippocampal interneurons", "setting": "[5]; bath application", "result": "no effect"},
      {"measurement": "onset of inhibition, hippocampal slices", "setting": "[5]; bath application", "result": "slow"},
      {"measurement": "inhibition at 1 µM", "setting": "[5]; read-out: inhibition of ACh-evoked responses in hippocampal interneurons, 1 µM", "result": "59 ± 13", "unit": "%"},
      {"measurement": "inhibition at 3 µM", "setting": "[5]; read-out: inhibition of ACh-evoked responses in hippocampal interneurons, 3 µM", "result": "92 ± 2", "unit": "%"},
      {"measurement": "inhibition at 10 µM", "setting": "[5]; read-out: inhibition of ACh-evoked responses in hippocampal interneurons, 10 µM", "result": 100, "unit": "%"},
      {"measurement": "recovery of responses after washout, hippocampal slices", "setting": "[5]; within 20 min of washout, two to three interneurons", "result": "do not recover after MARCKS ED peptide inhibition"},
      {"measurement": "potency at α2β2 compared with α7 nAChRs", "setting": "[6]; IC50 comparison by F test", "result": "decreased potency; also recorded: less potent inhibition"},
      {"measurement": "dissociation from α2β2 nAChRs relative to α7", "setting": "[6]; [7]", "result": "appears to dissociate more rapidly from heteromeric nAChRs"}
    ]}
  ]
}
